{"source": "patent US9068017B2", "about": "“Compositions and methods for inhibiting terminal transferase activity” (IBIS BIOSCIENCES, INC., priority 2010, dated 2015)", "system": "polymerase having terminal transferase activity", "method": "PCR products with and without boric acid added to PCR components and reagents prior to thermal cycling steps were compared. Stock boric acid was dissolved in 50% primer dilution buffer and added to PCR reactions for a final concentration of 100 mM boric acid and 200 mM boric acid."}
{"smiles": "OB(O)O", "note": "[boric acid]", "values": [{"measurement": "3′ non-template addition of amplicons resulting from polymerase dependent terminal transferase activity", "setting": "addition of boric acid to amplification reactions, summary statement, no concentration given", "value": "reduced 3′ non-template addition"}, {"measurement": "non-template addition on forward and reverse strands of PCR products", "setting": "boric acid added before thermal cycling, final concentration 100 mM and 200 mM, mass spectrometry (FIG. 1), non-template addition identified in absence of boric acid", "value": "undetectable non-template addition on both the forward and reverse strands"}]}
